{
  "source": "PubChem BioAssay AID1259407",
  "about": "(Chemical Carcinogenesis Research Information System (CCRIS), 2018)",
  "system": "CCRIS mutagenicity, Ames/micronucleus/aberration tests",
  "assay": "CCRIS mutagenicity studies",
  "key": {"[1]": {"conditions": "Test System: AMES SALMONELLA TYPHIMURIUM, Strain/Indicator: TA98, Metabolic Activation: NONE, Method: PREINCUBATION"}, "[2]": {"conditions": "Test System: AMES SALMONELLA TYPHIMURIUM, Strain/Indicator: TA100, Metabolic Activation: NONE, Method: PREINCUBATION"}},
  "note": "Active and inactive are the calls of the source. The rule behind the calls is not given here.",
  "data": [
    {"molecule": "O=C(O)c1ccc(NC2OCC(O)C(O)C2O)cc1", "note": "(stereo unspecified)", "values": [
      {"measurement": "mutagenic call", "setting": "Test System: AMES SALMONELLA TYPHIMURIUM, Strain/Indicator: TA100, Metabolic Activation: NONE, Method: LIQUID INCUBATION", "result": "inactive; negative"}
    ]},
    {"molecule": "COc1ccc2c3c(cccc13)C(=O)N(C)C2=O", "values": [
      {"measurement": "mutagenic call", "setting": "[1]", "result": "inactive; negative"},
      {"measurement": "mutagenic call", "setting": "Test System: AMES SALMONELLA TYPHIMURIUM, Strain/Indicator: TA98, Metabolic Activation: S-9, Method: PREINCUBATION", "result": "inactive; negative"},
      {"measurement": "mutagenic call", "setting": "[2]", "result": "inactive; negative"},
      {"measurement": "mutagenic call", "setting": "Test System: AMES SALMONELLA TYPHIMURIUM, Strain/Indicator: TA100, Metabolic Activation: S-9, Method: PREINCUBATION", "result": "inactive; negative"}
    ]},
    {"molecule": "COc1cccc2c1C(=O)c1c(O)c3c(c(O)c1C2=O)C[C@@](O)(C(=O)CO)C[C@@H]3O[C@H]1C[C@H](N)C[C@H](C)O1", "values": [
      {"measurement": "mutagenic call", "setting": "Test System: AMES SALMONELLA TYPHIMURIUM, Strain/Indicator: GW257, Metabolic Activation: NONE, Method: STANDARD PLATE", "result": "active; positive"},
      {"measurement": "mutagenic call", "setting": "Test System: AMES SALMONELLA TYPHIMURIUM, Strain/Indicator: TA98, Metabolic Activation: NONE, Method: STANDARD PLATE", "result": "active; positive"},
      {"measurement": "mutagenic call", "setting": "Test System: AMES SALMONELLA TYPHIMURIUM, Strain/Indicator: TA100, Metabolic Activation: NONE, Method: STANDARD PLATE", "result": "active; positive"},
      {"measurement": "mutagenic call", "setting": "Test System: AMES SALMONELLA TYPHIMURIUM, Strain/Indicator: TA1538, Metabolic Activation: NONE, Method: STANDARD PLATE", "result": "active; positive"},
      {"measurement": "mutagenic call", "setting": "Test System: CHINESE HAMSTER V-79, Strain/Indicator: V-79/6-THIOGUANINE, Metabolic Activation: NONE, Method: SUSPENSION/PLATE", "result": "active; positive"},
      {"measurement": "mutagenic call", "setting": "Test System: CHINESE HAMSTER V-79, Strain/Indicator: V-79/6-THIOGUANINE, Metabolic Activation: RAT, LIVER, HOMOGENATE, Method: SUSPENSION/PLATE", "result": "inactive; negative"}
    ]},
    {"molecule": "Cc1nn(C)c(Oc2ccccc2)c1/C=N/OCc1ccc(C(=O)OC(C)(C)C)cc1", "values": [
      {"measurement": "mutagenic call", "setting": "End Point: In vitro chromosomal aberrations, Test System: Human lymphocytes/Male, Metabolic Activation: None", "result": "inactive; negative"},
      {"measurement": "mutagenic call", "setting": "End Point: In vitro chromosomal aberrations, Test System: Human lymphocytes/Male, Metabolic Activation: Rat, Liver, S-9", "result": "inactive; negative"},
      {"measurement": "mutagenic call", "setting": "End Point: In vivol micronucleus, Species: Mouse, Strain/Sex: CD-1, Route: Oral", "result": "inactive; negative"}
    ]},
    {"molecule": "C=C1C[C@@]23CC[C@H]4[C@@](C)(CCC[C@@]4(C)C(=O)O[C@@H]4O[C@H](CO)[C@@H](O)[C@H](O)[C@H]4O)[C@@H]2CC[C@]1(O[C@@H]1O[C@H](CO)[C@@H](O)[C@H](O)[C@H]1O[C@@H]1O[C@H](CO)[C@@H](O)[C@H](O)[C@H]1O)C3", "values": [
      {"measurement": "mutagenic call", "setting": "Test System: AMES SALMONELLA TYPHIMURIUM, Strain/Indicator: TA97, Metabolic Activation: NONE, Method: PREINCUBATION", "result": "inactive; negative"},
      {"measurement": "mutagenic call", "setting": "Test System: AMES SALMONELLA TYPHIMURIUM, Strain/Indicator: TA97, Metabolic Activation: RAT, LIVER, S-9, PCB, Method: PREINCUBATION", "result": "inactive; negative"},
      {"measurement": "mutagenic call", "setting": "Test System: AMES SALMONELLA TYPHIMURIUM, Strain/Indicator: TA98, Metabolic Activation: RAT, LIVER, S-9, PCB, Method: PREINCUBATION", "result": "inactive; negative"},
      {"measurement": "mutagenic call", "setting": "Test System: AMES SALMONELLA TYPHIMURIUM, Strain/Indicator: TA98, Metabolic Activation: RAT, LIVER, S-9, SODIUM PHENOBARBITAL AND 5,6-BENZOFLAVONE, Method: PREINCUBATION", "result": "active; positive"},
      {"measurement": "mutagenic call", "setting": "[2]", "result": "inactive; negative"},
      {"measurement": "mutagenic call", "setting": "Test System: AMES SALMONELLA TYPHIMURIUM, Strain/Indicator: TA100, Metabolic Activation: RAT, LIVER, S-9, PCB, Method: PREINCUBATION", "result": "inactive; negative"},
      {"measurement": "mutagenic call", "setting": "Test System: AMES SALMONELLA TYPHIMURIUM, Strain/Indicator: TA100, Metabolic Activation: RAT, LIVER, S-9, SODIUM PHENOBARBITAL AND 5,6-BENZOFLAVONE, Method: PREINCUBATION", "result": "inactive; negative"},
      {"measurement": "mutagenic call", "setting": "Test System: AMES SALMONELLA TYPHIMURIUM, Strain/Indicator: TA102, Metabolic Activation: NONE, Method: PREINCUBATION", "result": "inactive; negative"},
      {"measurement": "mutagenic call", "setting": "Test System: AMES SALMONELLA TYPHIMURIUM, Strain/Indicator: TA102, Metabolic Activation: RAT, LIVER, S-9, PCB, Method: PREINCUBATION", "result": "inactive; negative"},
      {"measurement": "mutagenic call", "setting": "Test System: AMES SALMONELLA TYPHIMURIUM, Strain/Indicator: TA104, Metabolic Activation: NONE, Method: PREINCUBATION", "result": "inactive; negative"},
      {"measurement": "mutagenic call", "setting": "Test System: AMES SALMONELLA TYPHIMURIUM, Strain/Indicator: TA104, Metabolic Activation: RAT, LIVER, S-9, PCB, Method: PREINCUBATION", "result": "inactive; negative"},
      {"measurement": "mutagenic call", "setting": "Test System: AMES SALMONELLA TYPHIMURIUM, Strain/Indicator: TM677, Metabolic Activation: RAT, LIVER, S-9, AROCLOR 1254, Method: PREINCUBATION", "result": "inactive; negative"}
    ]},
    {"molecule": "CC(=O)Nc1ccc(Oc2ccc([N+](=O)[O-])cc2)cc1", "values": [
      {"measurement": "mutagenic call", "setting": "Test System: AMES SALMONELLA TYPHIMURIUM, Strain/Indicator: TA98(1,8-DNP6), Metabolic Activation: NONE, Method: PREINCUBATION", "result": "inactive; negative"},
      {"measurement": "mutagenic call", "setting": "Test System: AMES SALMONELLA TYPHIMURIUM, Strain/Indicator: TA98(1,8-DNP6), Metabolic Activation: RAT, LIVER, S-9, AROCLOR 1254, Method: PREINCUBATION", "result": "inactive; negative"},
      {"measurement": "mutagenic call", "setting": "Test System: AMES SALMONELLA TYPHIMURIUM, Strain/Indicator: TA98(NR), Metabolic Activation: NONE, Method: PREINCUBATION", "result": "inactive; negative"},
      {"measurement": "mutagenic call", "setting": "Test System: AMES SALMONELLA TYPHIMURIUM, Strain/Indicator: TA98(NR), Metabolic Activation: RAT, LIVER, S-9, AROCLOR 1254, Method: PREINCUBATION", "result": "inactive; negative"},
      {"measurement": "mutagenic call", "setting": "[1]", "result": "active; positive"},
      {"measurement": "mutagenic call", "setting": "Test System: AMES SALMONELLA TYPHIMURIUM, Strain/Indicator: TA98, Metabolic Activation: RAT, LIVER, S-9, AROCLOR 1254, Method: PREINCUBATION", "result": "active; positive"},
      {"measurement": "mutagenic call", "setting": "Test System: AMES SALMONELLA TYPHIMURIUM, Strain/Indicator: TA100(NR), Metabolic Activation: NONE, Method: PREINCUBATION", "result": "inactive; negative"},
      {"measurement": "mutagenic call", "setting": "Test System: AMES SALMONELLA TYPHIMURIUM, Strain/Indicator: TA100(NR), Metabolic Activation: RAT, LIVER, S-9, AROCLOR 1254, Method: PREINCUBATION", "result": "active; positive"},
      {"measurement": "mutagenic call", "setting": "[2]", "result": "active; positive"},
      {"measurement": "mutagenic call", "setting": "Test System: AMES SALMONELLA TYPHIMURIUM, Strain/Indicator: TA100, Metabolic Activation: RAT, LIVER, S-9, AROCLOR 1254, Method: PREINCUBATION", "result": "active; positive"}
    ]}
  ]
}
